# Laboratory results published in patent US20250136606A1, “MODULATORS OF TRPML, THEIR COMPOSITIONS AND METHODS OF USE” (Caraway Therapeutics, Inc., priority 2021, published 2025).
# Legend:
# Type in all cases: cell-based
# TRPML3 = target: T1, TRPML3 (Homo sapiens, UniProt Q8TDD5); experiment: Fluorescent TRPML3 assay (performed as for TRPML1, substituting the TRPML3 subtype)
# T1 construct: expressed in transfected cells
# T1 sequence (Q8TDD5 1-553): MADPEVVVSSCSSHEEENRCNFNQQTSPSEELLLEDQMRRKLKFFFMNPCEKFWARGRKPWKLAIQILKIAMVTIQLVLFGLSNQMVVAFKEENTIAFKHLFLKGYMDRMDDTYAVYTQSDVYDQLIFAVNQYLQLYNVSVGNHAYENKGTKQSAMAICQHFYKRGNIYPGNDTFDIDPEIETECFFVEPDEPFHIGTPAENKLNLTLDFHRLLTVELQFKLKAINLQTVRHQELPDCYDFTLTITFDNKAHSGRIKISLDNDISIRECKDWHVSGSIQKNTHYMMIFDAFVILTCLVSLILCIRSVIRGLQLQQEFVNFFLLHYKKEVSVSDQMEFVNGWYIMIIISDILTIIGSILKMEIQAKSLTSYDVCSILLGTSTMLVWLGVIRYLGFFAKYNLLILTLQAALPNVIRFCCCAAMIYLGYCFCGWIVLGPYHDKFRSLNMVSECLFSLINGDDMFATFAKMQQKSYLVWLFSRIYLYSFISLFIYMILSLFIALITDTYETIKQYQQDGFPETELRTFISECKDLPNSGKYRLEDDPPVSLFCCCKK
# Summary of the method: (§1)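 Doxycycline-induced (0.5 ug/mL) HEK-293 Trex cells stably expressing surface-directed mutant channel were loaded with 1 micromolar Fluo4-AM, resuspended in Ringer's with 10 mM calcium and added to compound plates. Fluorescence (ex 480, em 540 nm) gave percent activity versus on-plate controls; EC50 by non-linear regression.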
# TRPML2 = target: T2, TRPML2 (Homo sapiens, UniProt Q8IZK6); experiment: Fluorescent TRPML2 assay (performed as for TRPML1, substituting the TRPML2 subtype)
# T2 construct: expressed in transfected cells
# T2 sequence (Q8IZK6 1-566): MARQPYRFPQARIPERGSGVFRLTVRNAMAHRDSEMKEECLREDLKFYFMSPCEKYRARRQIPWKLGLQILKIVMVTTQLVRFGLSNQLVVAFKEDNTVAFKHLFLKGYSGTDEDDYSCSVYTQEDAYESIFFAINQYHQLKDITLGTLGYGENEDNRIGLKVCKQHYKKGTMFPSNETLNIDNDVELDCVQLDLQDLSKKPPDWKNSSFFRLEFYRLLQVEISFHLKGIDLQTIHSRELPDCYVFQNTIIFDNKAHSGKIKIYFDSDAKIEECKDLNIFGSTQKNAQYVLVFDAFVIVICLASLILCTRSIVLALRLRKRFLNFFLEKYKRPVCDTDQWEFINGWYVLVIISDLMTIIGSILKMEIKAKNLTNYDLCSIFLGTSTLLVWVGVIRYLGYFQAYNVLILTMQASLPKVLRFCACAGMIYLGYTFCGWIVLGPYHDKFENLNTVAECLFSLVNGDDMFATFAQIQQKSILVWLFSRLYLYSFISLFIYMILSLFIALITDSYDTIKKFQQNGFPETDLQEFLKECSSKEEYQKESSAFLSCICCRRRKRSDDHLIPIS
# Summary of the method: as §1
# TRPML1 = TRPML1 (Homo sapiens, UniProt Q9GZU1); experiment: Fluorescent TRPML1 assay (Fluo4-AM calcium fluorescence in doxycycline-induced HEK-293 Trex cells)
# TRPML1, sequence (Q9GZU1 whole entry L15A/L16A/L577A/L578A, form open): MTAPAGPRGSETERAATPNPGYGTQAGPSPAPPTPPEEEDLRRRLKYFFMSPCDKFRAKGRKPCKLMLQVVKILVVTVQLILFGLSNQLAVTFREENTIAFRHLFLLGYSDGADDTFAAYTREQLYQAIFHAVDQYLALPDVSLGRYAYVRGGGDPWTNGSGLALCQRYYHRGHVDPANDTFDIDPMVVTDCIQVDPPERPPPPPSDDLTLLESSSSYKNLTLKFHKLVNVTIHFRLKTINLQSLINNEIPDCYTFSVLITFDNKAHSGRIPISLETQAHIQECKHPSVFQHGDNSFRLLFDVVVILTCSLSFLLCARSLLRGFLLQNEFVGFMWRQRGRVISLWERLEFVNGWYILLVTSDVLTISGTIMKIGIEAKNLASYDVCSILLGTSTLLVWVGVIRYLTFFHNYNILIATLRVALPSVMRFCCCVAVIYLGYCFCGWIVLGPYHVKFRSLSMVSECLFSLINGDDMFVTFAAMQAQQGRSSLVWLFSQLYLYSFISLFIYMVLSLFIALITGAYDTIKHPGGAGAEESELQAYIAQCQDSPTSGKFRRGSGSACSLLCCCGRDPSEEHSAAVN
# Summary of the method: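 HEK-293 Trex cells stably expressing surface-directed mutant human TRPML1, induced with 0.5 µg/mL doxycycline overnight, were loaded with 1 µM Fluo4-AM and added to compound (6 nM–20 µM final, half-log steps, triplicate) in Ringer's with 10 mM calcium. Fluorescence ex 480/em 540; EC50 by non-linear regression versus plate controls.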
SMILES,EC50 (TRPML3) [µM],EC50 (TRPML2) [µM],EC50 (TRPML1) [µM]
"C[C@H]1CN(C(=O)OC(C)(C)C)CCN1c1ncnc2c1c(N1CCCC1)cn2[C@H]1CCC[C@@H](C#N)C1 [Compound 529, tert-butyl (S)-4-(7-(cis-3-cyanocyclohexyl)-5-(pyrrolidin-1-yl)-7H-pyrrolo[2,3-d]pyrimidin-4-yl)-3-methylpiperazine-1-carboxylate]",0.1 to 0.5,> 2,0.5 to 2
"C[C@@H]1CN(c2ncnc3c2c(C(C)(C)C)cn3-c2nccc(C#N)n2)[C@@H](C)CN1C(=O)OC(C)(C)C [Compound 532, tert-butyl (2R,5S)-4-(5-(tert-butyl)-7-(4-cyanopyrimidin-2-yl)-7H-pyrrolo[2,3-d]pyrimidin-4-yl)-2,5-dimethylpiperazine-1-carboxylate]",0.1 to 0.5,0.5 to 2,< 0.1
"[2H]C([2H])([2H])C(OC(=O)N1C[C@@H](C)N(c2ncnc3c2c(C(F)(F)F)cn3-c2cc(C#N)ccn2)C[C@H]1C)(C([2H])([2H])[2H])C([2H])([2H])[2H] [Compound 602, 2-(methyl-d3)propan-2-yl-1,1,1,3,3,3-d6 (2R,5R)-4-(7-(4-cyanopyridin-2-yl)-5-(trifluoromethyl)-7H-pyrrolo[2,3-d]pyrimidin-4-yl)-2,5-dimethylpiperazine-1-carboxylate]",0.1 to 0.5,0.5 to 2,< 0.1
"[2H]C([2H])([2H])C(OC(=O)N1C[C@H](C)N(c2ncnc3c2c(C(F)(F)F)cn3-c2cc(C#N)ccn2)C[C@@H]1C)(C([2H])([2H])[2H])C([2H])([2H])[2H] [Compound 603, 2-(methyl-d3)propan-2-yl-1,1,1,3,3,3-d6 (2S,5S)-4-(7-(4-cyanopyridin-2-yl)-5-(trifluoromethyl)-7H-pyrrolo[2,3-d]pyrimidin-4-yl)-2,5-dimethylpiperazine-1-carboxylate]",< 0.1,0.5 to 2,< 0.1
"C[C@@H]1CN(c2ncnc3c2c(C(F)(F)F)cn3-c2cc(C#N)ccn2)[C@@H](C)CN1C(=O)OC1(C(F)(F)F)CCC1 [Compound 604, 1-(trifluoromethyl)cyclobutyl (2R,5S)-4-(7-(4-cyanopyridin-2-yl)-5-(trifluoromethyl)-7H-pyrrolo[2,3-d]pyrimidin-4-yl)-2,5-dimethylpiperazine-1-carboxylate]",< 0.1,0.1 to 0.5,< 0.1
"C[C@@H]1CN(c2ncnc3c2c(C(F)F)cn3-c2cc(C#N)ccn2)[C@@H](C)CN1C(=O)OC1(C)CCC1 [Compound 605, 1-methylcyclobutyl (2R,5S)-4-(7-(4-cyanopyridin-2-yl)-5-(difluoromethyl)-7H-pyrrolo[2,3-d]pyrimidin-4-yl)-2,5-dimethylpiperazine-1-carboxylate]",< 0.1,0.1 to 0.5,< 0.1
"C[C@@H]1CN(c2ncnc3c2c(C(F)F)cn3-c2cccc(Cl)c2)[C@@H](C)CN1C(=O)OC1(C)CC1 [Compound 608, 1-methylcyclopropyl (2R,5S)-4-(7-(3-chlorophenyl)-5-(difluoromethyl)-7H-pyrrolo[2,3-d]pyrimidin-4-yl)-2,5-dimethylpiperazine-1-carboxylate]",< 0.1,> 2,0.1 to 0.5
"CC(C)(C)OC(=O)N1CCN(c2ncnc3c2c(C(F)F)cn3-c2cc(C#N)ccn2)CC1 [Compound 609, tert-buty1 4-(7-(4-cyanopyridin-2-yl)-5-(difluoromethyl)-7H-pyrrolo[2,3-d]pyrimidin-4-yl)piperazine-1-carboxylate]",< 0.1,0.5 to 2,< 0.1
"[2H]C([2H])([2H])[C@@H]1CN(c2ncnc3c2c(C(F)F)cn3-c2cc(C#N)ccn2)[C@@H](C)CN1C(=O)OC(C)(C)C [Compound 610, tert-butyl (2R,5S)-4-(7-(4-cyanopyridin-2-yl)-5-(difluoromethyl)-7H-pyrrolo[2,3-d]pyrimidin-4-yl)-5-methyl-2-(methyl-d3)piperazine-1-carboxylate]",< 0.1,0.5 to 2,< 0.1
"C[C@H]1CN(C(=O)OC(C)(C)C)CCN1c1nccc2c1c(C1(C)CC1)cn2-c1cc(C#N)ccn1 [Compound 612, tert-butyl (S)-4-(1-(4-cyanopyridin-2-yl)-3-(1-methylcyclopropyl)-1H-pyrrolo[3,2-c]pyridin-4-yl)-3-methylpiperazine-1-carboxylate]",0.1 to 0.5,0.5 to 2,< 0.1

# The remaining lines, values ahead:
EC50 (TRPML3) [µM],EC50 (TRPML2) [µM],EC50 (TRPML1) [µM],SMILES
< 0.1,< 0.1,0.1 to 0.5,"CC(C)(C)OC(=O)N1CCN(c2ncnc3c2c(C(F)(F)F)cn3-c2cc(C#N)ccn2)C(C)(C)C1 [Compound 528, tert-butyl 4-(7-(4-cyanopyridin-2-yl)-5-(trifluoromethyl)-7H-pyrrolo[2,3-d]pyrimidin-4-yl)-3,3-dimethylpiperazine-1-carboxylate]"
< 0.1,< 0.1,< 0.1,"CC(C)(C)OC(=O)N1CCN(c2ncnc3c2c(C(F)(F)F)cn3-c2cc(C#N)ccn2)C2(CC2)C1 [Compound 530, tert-butyl 4-(7-(4-cyanopyridin-2-yl)-5-(trifluoromethyl)-7H-pyrrolo[2,3-d]pyrimidin-4-yl)-4,7-diazaspiro[2.5]octane-7-carboxylate]"
< 0.1,< 0.1,< 0.1,"C[C@@H]1CN(c2ncnc3c2c(C(C)(C)C)cn3-c2cc(C#N)ncn2)[C@@H](C)CN1C(=O)OC(C)(C)C [Compound 533, tert-butyl (2R,5S)-4-(5-(tert-butyl)-7-(6-cyanopyrimidin-4-yl)-7H-pyrrolo[2,3-d]pyrimidin-4-yl)-2,5-dimethylpiperazine-1-carboxylate]"
< 0.1,< 0.1,< 0.1,"C[C@@H]1CN(c2ncnc3c2c(C(F)(F)F)cn3-c2cc(C#N)ccn2)[C@@H](C)CN1C(=O)OC1(C)CCC1 [Compound 535, 1-methylcyclobutyl (2R,5S)-4-(7-(4-cyanopyridin-2-yl)-5-(trifluoromethyl)-7H-pyrrolo[2,3-d]pyrimidin-4-yl)-2,5-dimethylpiperazine-1-carboxylate]"
< 0.1,< 0.1,< 0.1,"C[C@@H]1CN(c2ncnc3c2c(C(F)(F)F)cn3-c2cc(C(F)(F)F)ccn2)[C@@H](C)CN1C(=O)OC(C)(C)C [Compound 536, tert-butyl (2R,5S)-2,5-dimethyl-4-(5-(trifluoromethyl)-7-(4-(trifluoromethyl)pyridin-2-yl)-7H-pyrrolo[2,3-d]pyrimidin-4-yl)piperazine-1-carboxylate]"
< 0.1,< 0.1,< 0.1,"Cc1cn(-c2cc(C(F)(F)F)ccn2)c2ncnc(N3C[C@@H](C)N(C(=O)OC(C)(C)C)C[C@@H]3C)c12 [Compound 537, tert-butyl (2R,5S)-2,5-dimethyl-4-(5-methyl-7-(4-(trifluoromethyl)pyridin-2-yl)-7H-pyrrolo[2,3-d]pyrimidin-4-yl)piperazine-1-carboxylate]"
< 0.1,0.1 to 0.5,< 0.1,"[2H]C([2H])([2H])C(OC(=O)N1C[C@H](C)N(c2ncnc3c2c(C(F)F)cn3-c2cc(C#N)ccn2)C[C@H]1C)(C([2H])([2H])[2H])C([2H])([2H])[2H] [Compound 538, 2-(methyl-d3)propan-2-yl-1,1,1,3,3,3-d6 (2R,5S)-4-(7-(4-cyanopyridin-2-yl)-5-(difluoromethyl)-7H-pyrrolo[2,3-d]pyrimidin-4-yl)-2,5-dimethylpiperazine-1-carboxylate]"
< 0.1,0.1 to 0.5,< 0.1,"CC(C)(C)OC(=O)N1CCN(c2ncnc3c2c(N2CCCC2)cn3-c2cc(C#N)ccn2)C(C)(C)C1 [Compound 601, tert-butyl 4-(7-(4-cyanopyridin-2-yl)-5-(pyrrolidin-1-yl)-7H-pyrrolo[2,3-d]pyrimidin-4-yl)-3,3-dimethylpiperazine-1-carboxylate]"
